Assay results from patent publication US11150255B2, “Additive channels” (Emulate Inc., priority 2016, dated 2021).
Entries after “also recorded” stand apart in the source; their conditions may differ. Positions of bridges follow the written chain, without caps; N, C: chain ends. Non-standard residues stand in square brackets, D forms with d. Residues, ends and D or L forms follow the SMILES beside them. hArg = N=C(N)NCCCC[C@H](N)C(=O)O; Mpa = O=C(O)CCS

Tests used:
[1] = system: platelets in human whole blood over HUVEC endothelium; test: Vessel-On-Chip blood perfusion, platelet coverage by fluorescence imaging; assay type: cell-based; settings: for platelet aggregate formation / platelet coverage: hu5C8 240 μg/ml, sCD40L 10 ng/ml, untreated endothelium, 60 μl/minute, vs untreated blood; for platelet aggregation / platelet coverage: TNF-α 50 ng/ml 6 hours endothelial pre-treatment or sCollagen 10 μg/ml in blood, vs blood alone
Method: (§1) Briefly, human blood was drawn in citrate buffer and used within 4 hours. Platelets were stained using fluorescently labeled non-blocking antibodies for the platelet surface marker CD41 and low dosages of fluorescent fibrinogen were added in order to visualize fibrin deposition. Blood was re-calcified in order to re-establish the full coagulation potential, then introduced in the biomimetic vessel-on-chip from the main inlet (embodiments of inlets shown in FIG. 18A-1, FIG. 18A-2 and FIG. 19C). The outlet of the chip was connected to a pulling syringe pump with a system of tubing and connectors made of medical grade silicon that excludes any metal components or potential causes of platelet activation (FIG. 5A).
(§2) After 14 minutes of perfusion, the flow was interrupted and the chips were immediately imaged via fluorescence microscopy (FIG. 18C and FIG. 19D). In healthy conditions, endothelial cells will provide an antithrombotic surface where blood can flow smoothly, and indeed we detected minimal platelet adhesion or fibrin deposition in our vessel-on-chip after blood perfusion in control conditions, FIG. 18C, Blood.
Platelets were labeled with human CD41-PE antibody (10 μL/ml, Invitrogen) directly added to the blood and incubated at room temperature for 5 minutes.
A medical grade plastic reservoir was mounted on the chip, then 800 μl of the blood sample was pipetted into the reservoir. The chip was perfused with the blood by withdrawing it at a rate of 60 μl/minute using a syringe pump. The citrated blood was re-calcified 2 minutes after the beginning of each experiment by adding 100 μl/ml of a solution containing 100 mM calcium chloride and 75 mM magnesium chloride to the blood to permit calcium- and magnesium-dependent platelet function and coagulation.
(§3) Chips perfused with blood samples were immediately imaged via fluorescence microscopy (Olympus IX83, 10× objective UPLFLN10×2, Orca-Flash4.0 CMOS Camera). Each chamber was inspected along its entire length and S images (about 0.25 cm) were captured from the central area of the chamber. Image processing and quantification was performed with an automatic macro compiled in ImageJ and numerical values corresponding to platelet coverage or fibrin florescence were collected and statistically analyzed in Graphpad Prism V7.
(§4) A percentage of signal coverage (or Platelet coverage) was computed from the binary image as the ratio of bright pixels to the total number of pixels in the image. Image processing and quantification was performed with an automatic macro compiled in ImageJ in order to ensure unbiased signal measurements. Numerical values corresponding to platelet coverage or fibrin fluorescence (signal intensity) were collected and statistically analyzed in Graphpad Prism V7.

[2] = system: fibrin deposition on the endothelium; test: Vessel-On-Chip blood perfusion, fibrin deposition by fluorescent fibrinogen imaging; assay type: cell-based, human; settings: for fibrin deposition / fibrin clot formation: hu5C8 240 μg/ml, sCD40L 10 ng/ml, untreated endothelium, 60 μl/minute, vs untreated blood; for fibrin deposition / fibrin signal intensity: TNF-α 50 ng/ml 6 hours endothelial pre-treatment or sCollagen 10 μg/ml in blood, vs blood alone
Method: as §1, §2
When analyzing the formation of fibrin, […] of fluorescently labeled fibrinogen (Alexa 488, Invitrogen) was also added to the blood. While fluorescent fibrinogen was barely detected as a diffused fluorescence, fibrin deposition on inflamed cells and sparse clots was easily distinguished since fibrin formed filamentous structures produce a signal intensity that is clearly observed above a background threshold.
as §3, §4

patients = settings: hu5C8: lupus nephritis study; IDEC-131: Crohn's disease trial; cited from earlier work
FcγRIIa = test: Vessel-On-Chip thrombosis, all endpoints (platelet coverage, fibrin deposition, TAT); assay type: cell-based, human; settings: for hu5C8-mediated thrombosis on-chip (platelet coverage, fibrin deposition, TAT): with sCD40L 10 ng/ml, IV.3 1 μg/ml pre-incubation or IgG2σ variant in place of hu5C8
[3] = system: thrombin anti-thrombin complex (TAT); test: Thrombin anti-thrombin (TAT) ELISA in chip effluent plasma; assay type: cell-based, human; settings: TNF-α endothelial pre-treatment or sCollagen in blood; outflow samples
Method: Thrombin converts fibrinogen into fibrin during clot formation, and anti-thrombin plays a role in maintaining homeostasis by inhibiting the effect of thrombin. Formation of TAT in the microdevice confirms that local and intrinsic generation of thrombin, a potent platelet agonist, occurs in the model and that counter regulatory mechanisms for coagulation are retained. Thus, blood sampled from the Vessel-On-Chip was analyzed for thrombin anti-thrombin complex (TAT), an accepted clinical biomarker for procoagulation^48,49. […] An enzyme-linked immunosorbant assay (ELISA) was used to quantify the thrombin anti-thrombin complex (TAT).
Thrombin Anti-Thrombin (TAT) levels were analyzed in plasma from blood flowing out of the chip device by removing a sample from the outflow port. Thus TAT levels were evaluated in sample effluents collected from the outflow port of the chip using the Human TAT ELISA Kit (Siemens Healthineers) according to the user manual.
Blood sampled from the Vessel-On-Chip outflow port was analyzed for thrombin anti-thrombin complex (TAT), a factor released upon activation of the coagulation cascade and one of the biomarkers associated with thrombotic events occurring in patients affected with deep vein thrombosis (DVT) or SLE^45,46. […] An enzyme-linked immunosorbant assay (ELISA) was used to quantify the thrombin anti-thrombin complex (TAT).

[4] = Eptifibatide 2 ug/ml, endothelium inflamed with TNF-α, n=4

For sCD40L: Recombinant human sCD40 Ligand, the “platelet aggregate formation / platelet coverage” value [1] was “no significant treatment-related effects; also recorded: not statistically significant”, the “increase in platelet coverage in some donors, fold over untreated control” value ([1]; sCD40L alone) was “about 2 fold” and the “fibrin deposition / fibrin clot formation” value [2] was “no significant treatment-related effects”.

For “hu5C8: humanized monoclonal IgG1 antibody against CD40L, alternatively named anti-sCD40L or anti-CD154”, the “incidence of thromboembolic events in clinical study” value (patients) is given as 2/18, the “platelet aggregate formation / platelet coverage” value [1] is given as “no significant treatment-related effects” and the “fibrin deposition / fibrin clot formation” value [2] is given as “no significant treatment-related effects”.

With `N=C(N)NCCCC[C@@H]1NC(=O)CCSSC[C@@H](C(N)=O)NC(=O)[C@@H]2CCCN2C(=O)[C@H](Cc2c[nH]c3ccccc23)NC(=O)[C@H](CC(=O)O)NC(=O)CNC1=O` [Eptifibatide] ([Mpa][hArg]GDWPC-NH2; disulfide 1-7) the “thrombotic events recapitulated in the system” value (FcγRIIa; clinically relevant dosages of Eptifibatide) was “inhibited”, the “inhibitory effect on platelet aggregation and fibrin clot formation” value ([1]; Eptifibatide 2 ug/ml, blood treated with sCollagen, n=4) was “comparatively modest” and the platelet aggregation [1, 4] was “significantly inhibited”. For the same compound, the “platelet adhesion (image analysis of multiple experiments)” value ([1]; Eptifibatide 2 ug/ml, n=4) was “completely inhibited”, the “platelet coverage in stimulated, pro-thrombotic conditions” value ([1]; TNF-α or sCollagen, with Eptifibatide, FIG. 18E-1, n=4 donors) was “suppressed” and the fibrin clot formation [2, 4] was “significantly inhibited”. For the same compound, the “fibrin signal (image analysis of multiple experiments)” value ([2]; Eptifibatide 2 ug/ml, samples treated with TNF-α, n=4) was “a significant amount of fibrin signal was still detectable” and the “fibrin deposition in stimulated, pro-thrombotic conditions” value ([2]; TNF-α or sCollagen, with Eptifibatide, FIG. 18E-2, n=4 donors) was “suppressed”.

In the case of “sCollagen: soluble collagen (Soluble Calf Skin, Type I), a standard platelet activator”, the “levels of TAT” value [3] is reported as “minimally increased; also recorded: elevated levels”, the “platelet aggregation / platelet coverage” value [1] is reported as “increased; also recorded: high number of larger aggregates” and the “fibrin deposition / fibrin signal intensity” value [2] is reported as “increased”.

With “hu5C8 (IgG2σ): IgG2σ variant of hu5C8 with an engineered Fc region that eliminates affinity for the FcγRIIa” the “hu5C8-mediated thrombosis on-chip (platelet coverage, fibrin deposition, TAT)” value (from here on “hu5C8-mediated thrombosis on-chip”) (FcγRIIa) was “did not show signs of thrombosis”, the “hu5C8-mediated thrombosis on-chip” value (FcγRIIa; listed as IgG2σ) was “suppressed” and the “hu5C8-mediated thrombosis on-chip” value (FcγRIIa; listed as hu5C8-IgG2σ) was “not detected”.

In the case of TNF-α, the “levels of TAT” value [3] is reported as “significantly increased; also recorded: elevated levels”, the “platelet aggregation / platelet coverage” value [1] is reported as “increased; also recorded: high number of larger aggregates” and the “fibrin deposition / fibrin signal intensity” value [2] is reported as “increased”.
